Test results from ChEMBL document CHEMBL1155630, “New metabolites from the West Indian sea feather Pseudopterogorgia bipinnata” (J Nat Prod, 2000).
Activity calls are given as the source filed them. The calls are words filed in the database; no cut-off is given here.

Test system: Mycobacterium tuberculosis
Assay: Antitubercular activity against Mycobacterium tuberculosis H37Rv at 6.25 ug/mL
Assay type: functional, organism-based

SMILES | Activity
C=C(C)[C@H](CCC1=C[C@H](CC(C)=O)OC1=O)[C@H](O)c1oc(C(C)=O)cc1C | inactive
C=C1CC(=O)/C=C(/C)C[C@@H]2OC(=O)[C@]3(O[C@@H]23)[C@H]2C[C@@H]([C@@]3(C)CO3)[C@H](O)[C@]1(O)O2 | inactive
